Laboratory results: publication PMC7822065, “Discovery of indole-3-butyric acid derivatives as potent histone deacetylase inhibitors” (Journal of Enzyme Inhibition and Medicinal Chemistry, 2021)

Assays:
U937 cells = experiment: MTT antiproliferative assay, U937; conditions: Homo sapiens, U-937, 48 h, read-out: U937 IC50
Protocol: (§1) The stock solutions of tested compounds were diluted with culture medium. […] Then, the cells were treated with compound sample at various concentrations for 48 h. Afterward, 20 MTT working solution (5 mg/ml) was added to each well and incubated for another 4 h. After incubation, the medium formed from MTT was extracted by adding DMSO (200 µl). The optical density (OD) at 490 nm and 630 nm were measured by Universal Microplate Spectrophotometer. […] The IC50 values were calculated with Origin 7.5 software (Originlab Corporation, Northampton, MA), and standard deviations of the IC50 values were obtained through at least 3 independent experiments.

U266 cells = experiment: MTT antiproliferative assay, U266; conditions: Homo sapiens, U-266, 48 h, read-out: U266 IC50
Protocol: as §1
To evaluate the antiproliferative activity of hydroxamic acid containing molecules, MTT assays were performed using U937, U266, and HepG2 cell lines.

HepG2 cells = experiment: MTT antiproliferative assay, HepG2; conditions: Homo sapiens, HepG2, 48 h, read-out: HepG2 IC50
Protocol: as §1

[1] = system: HDACs (HeLa nucleus extract containing a mixture of HDAC isoforms); experiment: HDAC inhibitory assay with HeLa nucleus extract; conditions: at the concentration of 1 µM

For `O=C(CCCc1c[nH]c2ccccc12)Nc1ccc(C(=O)NO)cc1` [Compound I1, 4-(4-(1H-indol-3-yl)butanamido)-N-hydroxybenzamide], which IC50 (U937 cells) is on record?
Its IC50 is 1020 ± 130 nM.

What about the IC50 (U266 cells) of the same molecule?
Its IC50 is 840 ± 90 nM.

And the IC50 (HepG2 cells)?
Its IC50 is 8980 ± 160 nM.

What about the “HDACs, percentage inhibition rate (PIR)” value [1] of the same molecule?
The value was 53.81 ± 1.60%.

Which results are given for `CCNNC(=O)c1ccc(NC(=O)CCCc2c[nH]c3ccccc23)cc1` [Compound I1e1, N-[4-(N′-Ethyl-hydrazinocarbonyl)-phenyl]-4-(1H-indol-3-yl)-butyramide]?
IC50 (U266 cells): 15970 ± 140 nM; HDACs, percentage inhibition rate (PIR) [1]: 50.60 ± 2.02%

`CCCNNC(=O)c1ccc(NC(=O)CCCc2c[nH]c3ccccc23)cc1` [Compound I1e2, 4-(1H-Indol-3-yl)-N-[4-(N′-propyl-hydrazinocarbonyl)-phenyl]-butyramide] was tested. Which IC50 (U266 cells) did it give?
The IC50 was 640 ± 20 nM.

And the “HDACs, percentage inhibition rate (PIR)” value [1]?
The value was 61.34 ± 3.56%.

Which IC50 (U266 cells) does the source give for `CCCCNNC(=O)c1ccc(NC(=O)CCCc2c[nH]c3ccccc23)cc1` [Compound I1e3, N-[4-(N′-Butyl-hydrazinocarbonyl)-phenyl]-4-(1H-indol-3-yl)-butyramide] here?
The IC50 was 1060 ± 50 nM.

What about the “HDACs, percentage inhibition rate (PIR)” value [1] of the same molecule?
The value was 30.47 ± 1.17%.

Which results are given for `CC(C)CNNC(=O)c1ccc(NC(=O)CCCc2c[nH]c3ccccc23)cc1` [Compound I1e4, 4-(1H-Indol-3-yl)-N-[4-(N′-isobutyl-hydrazinocarbonyl)-phenyl]-butyramide]?
IC50 (U266 cells): 16000 ± 670 nM; HDACs, percentage inhibition rate (PIR) [1]: 7.16 ± 1.50%

How did the IC50 (U937 cells) turn out when `O=C(CCCc1cn(Cc2ccccc2)c2ccccc12)Nc1ccc(C(=O)NO)cc1` [Compound I2, 4-(4-(1-benzyl-1H-indol-3-yl)butanamido)-N-hydroxybenzamide] was run?
The IC50 was 950 ± 40 nM.

What about the IC50 (U266 cells) of the same molecule?
The IC50 was 480 ± 90 nM.

And the IC50 (HepG2 cells)?
The IC50 was 3630 ± 260 nM.

What about the “HDACs, percentage inhibition rate (PIR)” value [1] of the same molecule?
Its value is 78.94 ± 3.41%.

For `CCCNNC(=O)c1ccc(NC(=O)CCCc2cn(Cc3ccccc3)c3ccccc23)cc1` [Compound I2e2, 4-(1-Benzyl-1H-indol-3-yl)-N-[4-(N′-propyl-hydrazinocarbonyl)-phenyl]-butyramide], which IC50 (U266 cells) is on record?
The IC50 was 1110 ± 80 nM.

What about the “HDACs, percentage inhibition rate (PIR)” value ([1]; 1 µM) of the same molecule?
The value was 57.46 ± 2.06%.

What does the source list for `CCCCNNC(=O)c1ccc(NC(=O)CCCc2cn(Cc3ccccc3)c3ccccc23)cc1` [Compound I2e3, 4-(1-Benzyl-1H-indol-3-yl)-N-[4-(N′-butyl-hydrazinocarbonyl)-phenyl]-butyramide]?
IC50 (U266 cells): 1710 ± 70 nM; HDACs, percentage inhibition rate (PIR) [1]: 51.41 ± 2.78%

`CCn1cc(CCCC(=O)Nc2ccc(C(=O)NO)cc2)c2ccccc21` [Compound I3, 4-(4-(1-Ethyl-1H-indol-3-yl)butanamido)-N-hydroxybenzamide] was tested. Which IC50 (U937 cells) did it give?
Its IC50 is 940 ± 40 nM.

What about the IC50 (U266 cells) of the same molecule?
The IC50 was 240 ± 30 nM.

And the IC50 (HepG2 cells)?
Its IC50 is 1920 ± 50 nM.

And the “HDACs, percentage inhibition rate (PIR)” value [1]?
Its value is 78.94 ± 2.34%.

Which IC50 (U266 cells) does the source give for `CCCNNC(=O)c1ccc(NC(=O)CCCc2cn(CC)c3ccccc23)cc1` [Compound I3e2, 4-(1-Ethyl-1H-indol-3-yl)-N-[4-(N′-propyl-hydrazinocarbonyl)-phenyl]-butyramide] here?
Its IC50 is 480 ± 100 nM.

What about the “HDACs, percentage inhibition rate (PIR)” value [1] of the same molecule?
The value was 36.51 ± 2.93%.

How did the IC50 (U266 cells) turn out when `CCCCNNC(=O)c1ccc(NC(=O)CCCc2cn(CC)c3ccccc23)cc1` [Compound I3e3, N-[4-(N′-Butyl-hydrazinocarbonyl)-phenyl]-4-(1-ethyl-1H-indol-3-yl)-butyramide] was run?
Its IC50 is 1450 ± 100 nM.

And the “HDACs, percentage inhibition rate (PIR)” value [1]?
Its value is 31.94 ± 1.51%.

`O=C(CCCc1cn(Cc2ccc(C(F)(F)F)cc2)c2ccccc12)Nc1ccc(C(=O)NO)cc1` [Compound I4, 4-(4-(1-(4-Trifluoromethyl-benzyl)-1H-indol-3-yl)butanamido)-N-hydroxybenzamide] was tested. Which IC50 (U937 cells) did it give?
Its IC50 is 970 ± 40 nM.

What about the IC50 (U266 cells) of the same molecule?
The IC50 was 960 ± 80 nM.

And the IC50 (HepG2 cells)?
Its IC50 is 4450 ± 250 nM.

What about the “HDACs, percentage inhibition rate (PIR)” value [1] of the same molecule?
Its value is 68.50 ± 1.22%.

What does the source list for `O=C(CCCc1cn(Cc2ccccc2C(F)(F)F)c2ccccc12)Nc1ccc(C(=O)NO)cc1` [Compound I5, 4-(4-(1-(2-Trifluoromethyl-benzyl)-1H-indol-3-yl)butanamido)-N-hydroxybenzamide]?
IC50 (U937 cells): 4420 ± 180 nM; IC50 (U266 cells): 880 ± 70 nM; IC50 (HepG2 cells): 6170 ± 210 nM; HDACs, percentage inhibition rate (PIR) [1]: 19.30 ± 1.60%

What does the source list for `O=C(CCCc1cn(Cc2ccc(F)c(F)c2)c2ccccc12)Nc1ccc(C(=O)NO)cc1` [Compound I6, 4-(4-(1-(3,4-Difluoro-benzyl)-1H-indol-3-yl)butanamido)-N-hydroxybenzamide]?
IC50 (U937 cells): 1250 ± 210 nM; IC50 (U266 cells): 820 ± 60 nM; IC50 (HepG2 cells): 7720 ± 340 nM; HDACs, percentage inhibition rate (PIR) [1]: 16.14 ± 1.07%

Which IC50 (U937 cells) does the source give for `O=C(CCCc1cn(Cc2cccc(F)c2)c2ccccc12)Nc1ccc(C(=O)NO)cc1` [Compound I7, 4-(4-(1-(3-Fluoro-benzyl)-1H-indol-3-yl)butanamido)-N-hydroxybenzamide] here?
Its IC50 is 950 ± 10 nM.

What about the IC50 (U266 cells) of the same molecule?
The IC50 was 840 ± 60 nM.

And the IC50 (HepG2 cells)?
The IC50 was 4870 ± 120 nM.

What about the “HDACs, percentage inhibition rate (PIR)” value [1] of the same molecule?
Its value is 46.17 ± 2.94%.

How did the IC50 (U266 cells) turn out when `CCCNNC(=O)c1ccc(NC(=O)CCCc2cn(Cc3cccc(F)c3)c3ccccc23)cc1` [Compound I7e2, 4-[1-(3-Fluoro-benzyl)-1H-indol-3-yl]-N-[4-(N′-propyl-hydrazinocarbonyl)-phenyl]-butyramide] was run?
Its IC50 is 1320 ± 80 nM.

And the “HDACs, percentage inhibition rate (PIR)” value [1]?
The value was 30.45 ± 3.38%.

Which IC50 (U937 cells) does the source give for `O=C(CCCc1cn(Cc2cccc(Br)c2)c2ccccc12)Nc1ccc(C(=O)NO)cc1` [Compound I8, 4-(4-(1-(3-Bromo-benzyl)-1H-indol-3-yl)butanamido)-N-hydroxybenzamide] here?
The IC50 was 1940 ± 170 nM.

What about the IC50 (U266 cells) of the same molecule?
Its IC50 is 710 ± 60 nM.

And the IC50 (HepG2 cells)?
The IC50 was 6450 ± 280 nM.

And the “HDACs, percentage inhibition rate (PIR)” value [1]?
Its value is 15.87 ± 3.27%.

`O=C(CCCc1cn(Cc2cccc(Cl)c2)c2ccccc12)Nc1ccc(C(=O)NO)cc1` [Compound I9, 4-(4-(1-(3-Chloro-benzyl)-1H-indol-3-yl)butanamido)-N-hydroxybenzamide] was tested. Which IC50 (U937 cells) did it give?
Its IC50 is 1000 ± 150 nM.

What about the IC50 (U266 cells) of the same molecule?
The IC50 was 650 ± 40 nM.

And the IC50 (HepG2 cells)?
Its IC50 is 5670 ± 60 nM.

What about the “HDACs, percentage inhibition rate (PIR)” value [1] of the same molecule?
Its value is 56.68 ± 2.42%.

For `O=C(CCCc1cn(Cc2c(F)cccc2F)c2ccccc12)Nc1ccc(C(=O)NO)cc1` [Compound I10, 4-(4-(1-(2,6-Difluoro-benzyl)-1H-indol-3-yl)butanamido)-N-hydroxybenzamide], which IC50 (U937 cells) is on record?
Its IC50 is 630 ± 70 nM.

And the IC50 (U266 cells)?
Its IC50 is 160 ± 70 nM.

What about the IC50 (HepG2 cells) of the same molecule?
Its IC50 is 3390 ± 250 nM.

And the “HDACs, percentage inhibition rate (PIR)” value [1]?
Its value is 79.10 ± 4.65%.

What does the source list for `CCCNNC(=O)c1ccc(NC(=O)CCCc2cn(Cc3c(F)cccc3F)c3ccccc23)cc1` [Compound I10e2, 4-[1-(2,6-Difluoro-benzyl)-1H-indol-3-yl]-N-[4-(N′-propyl-hydrazinocarbonyl)-phenyl]-butyramide]?
IC50 (U266 cells): 740 ± 50 nM; HDACs, percentage inhibition rate (PIR) [1]: 46.85 ± 2.06%

Which IC50 (U937 cells) does the source give for `O=C(CCCc1cn(Cc2cc(C(F)(F)F)cc(C(F)(F)F)c2)c2ccccc12)Nc1ccc(C(=O)NO)cc1` [Compound I11, 4-(4-(1-(3,5-Bis-trifluoromethyl-benzyl)-1H-indol-3-yl)butanamido)-N-hydroxybenzamide] here?
The IC50 was 4580 ± 230 nM.

And the IC50 (U266 cells)?
The IC50 was 740 ± 50 nM.

And the IC50 (HepG2 cells)?
Its IC50 is 4760 ± 610 nM.

What about the “HDACs, percentage inhibition rate (PIR)” value [1] of the same molecule?
Its value is 52.24 ± 1.10%.

`CCCCn1cc(CCCC(=O)Nc2ccc(C(=O)NO)cc2)c2ccccc21` [Compound I12, 4-(4-(1-Butyl-1H-indol-3-yl)butanamido)-N-hydroxybenzamide] was tested. Which IC50 (U937 cells) did it give?
The IC50 was 1010 ± 30 nM.

What about the IC50 (U266 cells) of the same molecule?
Its IC50 is 120 ± 20 nM.

And the IC50 (HepG2 cells)?
Its IC50 is 5760 ± 650 nM.

What about the “HDACs, percentage inhibition rate (PIR)” value [1] of the same molecule?
The value was 62.70 ± 1.63%.

Which results are given for `CCCCn1cc(CCCC(=O)Nc2ccc(C(=O)NNCCC)cc2)c2ccccc21` [Compound I12e2, 4-(1-Butyl-1H-indol-3-yl)-N-[4-(N′-propyl-hydrazinocarbonyl)-phenyl]-butyramide]?
IC50 (U266 cells): 1280 ± 120 nM; HDACs, percentage inhibition rate (PIR) [1]: 39.73 ± 1.84%

Which results are given for `CCCCNNC(=O)c1ccc(NC(=O)CCCc2cn(CCCC)c3ccccc23)cc1` [Compound I12e3, N-[4-(N′-Butyl-hydrazinocarbonyl)-phenyl]-4-(1-butyl-1H-indol-3-yl)-butyramide]?
IC50 (U266 cells): 1440 ± 310 nM; HDACs, percentage inhibition rate (PIR) [1]: 42.76 ± 1.56%

Which results are given for `CCCNNC(=O)c1ccc(NC(=O)CCCc2cn(C)c3ccccc23)cc1` [Compound I13e2, 4-(1-Methyl-1H-indol-3-yl)-N-[4-(N′-propyl-hydrazinocarbonyl)-phenyl]-butyramide]?
IC50 (U266 cells): 710 ± 110 nM; HDACs, percentage inhibition rate (PIR) [1]: 29.68 ± 2.06%

For `CCCCNNC(=O)c1ccc(NC(=O)CCCc2cn(C)c3ccccc23)cc1` [Compound I13e3, N-[4-(N′-Butyl-hydrazinocarbonyl)-phenyl]-4-(1-methyl-1H-indol-3-yl)-butyramide], which IC50 (U266 cells) is on record?
The IC50 was 1360 ± 60 nM.

What about the “HDACs, percentage inhibition rate (PIR)” value [1] of the same molecule?
Its value is 32.15 ± 1.03%.
